In PubChem BioAssay (NCI):
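GI50 = concentration required for 50% inhibition of growth. TGI is the concentration that stops growth completely.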

Assays:
Assay in all cases: growth of human tumour cells (NCI), 384-well format
SF-295 CNS = test system: SF-295 CNS
A498 renal = test system: A498 renal
RPMI-8226 leukemia = test system: RPMI-8226 leukemia
ACHN renal = test system: ACHN renal
786-0 renal = test system: 786-0 renal
OVCAR-3 ovarian = test system: OVCAR-3 ovarian
CAKI-1 renal = test system: CAKI-1 renal
KM12 colon = test system: KM12 colon
COLO 205 colon = test system: COLO 205 colon
T-47D breast = test system: T-47D breast
SK-MEL-5 melanoma = test system: SK-MEL-5 melanoma
MCF7 breast = test system: MCF7 breast
NCI-H226 lung = test system: NCI-H226 lung
SW-620 colon = test system: SW-620 colon
A549 NSCLC = test system: A549 NSCLC
TK-10 renal = test system: TK-10 renal
HCT-116 colon = test system: HCT-116 colon
EKVX NSCLC = test system: EKVX NSCLC
SF-268 CNS = test system: SF-268 CNS
LOX IMVI melanoma = test system: LOX IMVI melanoma
NCI-H23 lung = test system: NCI-H23 lung
SF-539 CNS = test system: SF-539 CNS
MALME-3M melanoma = test system: MALME-3M melanoma
UACC-62 melanoma = test system: UACC-62 melanoma
SNB-19 CNS = test system: SNB-19 CNS
MDA-MB-468 breast = test system: MDA-MB-468 breast
OVCAR-8 ovarian = test system: OVCAR-8 ovarian
MDA-MB-231 breast = test system: MDA-MB-231 breast
SN12C renal = test system: SN12C renal
NCI-H460 NSCLC = test system: NCI-H460 NSCLC
HT29 colon = test system: HT29 colon
OVCAR-5 ovarian = test system: OVCAR-5 ovarian
IGROV1 ovarian = test system: IGROV1 ovarian
SK-MEL-28 melanoma = test system: SK-MEL-28 melanoma
NCI/ADR-RES ovarian = test system: NCI/ADR-RES ovarian
NCI-H522 lung = test system: NCI-H522 lung
UO-31 renal = test system: UO-31 renal
MOLT-4 leukemia = test system: MOLT-4 leukemia
BT-549 breast = test system: BT-549 breast
HOP-92 NSCLC = test system: HOP-92 NSCLC
RXF 393 renal = test system: RXF 393 renal
HCC-2998 colon = test system: HCC-2998 colon
OVCAR-4 ovarian = test system: OVCAR-4 ovarian
SNB-75 CNS = test system: SNB-75 CNS
U251 glioblastoma = test system: U251 glioblastoma
HOP-62 NSCLC = test system: HOP-62 NSCLC
HL-60(TB) leukemia = test system: HL-60(TB) leukemia
HS 578T breast = test system: HS 578T breast
M14 melanoma = test system: M14 melanoma
CCRF-CEM leukemia = test system: CCRF-CEM leukemia
MDA-MB-435 melanoma = test system: MDA-MB-435 melanoma
K-562 leukemia = test system: K-562 leukemia
SK-OV-3 ovarian = test system: SK-OV-3 ovarian
UACC-257 melanoma = test system: UACC-257 melanoma
PC-3 prostate = test system: PC-3 prostate
HCT-15 colon = test system: HCT-15 colon
DU-145 prostate = test system: DU-145 prostate
NCI-H322M lung = test system: NCI-H322M lung

CCCCCCCC/C=C/CCCCCCCC(=O)OC[C@H]1O[C@@H](n2ccc(N)nc2=O)C(F)(F)[C@@H]1O
GI50 (SF-295 CNS): < 10 nM
TGI (SF-295 CNS): 18.5 nM
GI50 (A498 renal): < 10 nM
TGI (A498 renal): 14900 nM
GI50 (RPMI-8226 leukemia): < 10 nM
TGI (RPMI-8226 leukemia): < 10 nM
GI50 (ACHN renal): < 10 nM
TGI (ACHN renal): < 10 nM
GI50 ([…]-0 renal): < 10 nM
TGI (786-0 renal): < 10 nM
GI50 (OVCAR-3 ovarian): < 10 nM
TGI (OVCAR-3 ovarian): 16700 nM
GI50 (CAKI-1 renal): < 10 nM
TGI (CAKI-1 renal): 2990 nM
GI50 (KM12 colon): < 10 nM
TGI (KM12 colon): 15300 nM
GI50 (COLO 205 colon): < 10 nM
TGI (COLO 205 colon): 49.6 nM
GI50 (T-47D breast): < 10 nM
TGI (T-47D breast): 1560 nM
GI50 (SK-MEL-5 melanoma): < 10 nM
TGI (SK-MEL-5 melanoma): 24.7 nM
GI50 (MCF7 breast): < 10 nM
TGI (MCF7 breast): 14100 nM
GI50 (NCI-H226 lung): 24.8 nM
TGI (NCI-H226 lung): 83.2 nM
GI50 (SW-620 colon): < 10 nM
TGI (SW-620 colon): 46000 nM
GI50 (A549 NSCLC): < 10 nM
TGI (A549 NSCLC): 11900 nM
GI50 (TK-10 renal): > 100000 nM
TGI (TK-10 renal): > 100000 nM
GI50 (HCT-116 colon): < 10 nM
TGI (HCT-116 colon): 10200 nM
GI50 (EKVX NSCLC): 57.6 nM
TGI (EKVX NSCLC): 15400 nM
GI50 (SF-268 CNS): < 10 nM
TGI (SF-268 CNS): < 10 nM
GI50 (LOX IMVI melanoma): < 10 nM
TGI (LOX IMVI melanoma): 18.8 nM
GI50 (NCI-H23 lung): < 10 nM
TGI (NCI-H23 lung): < 10 nM
GI50 (SF-539 CNS): < 10 nM
TGI (SF-539 CNS): < 10 nM
GI50 (MALME-3M melanoma): < 10 nM
TGI (MALME-3M melanoma): 15100 nM
GI50 (UACC-62 melanoma): < 10 nM
TGI (UACC-62 melanoma): < 10 nM
GI50 (SNB-19 CNS): < 10 nM
TGI (SNB-19 CNS): 518 nM
GI50 (MDA-MB-468 breast): < 10 nM
TGI (MDA-MB-468 breast): < 10 nM
GI50 (OVCAR-8 ovarian): < 10 nM
TGI (OVCAR-8 ovarian): < 10 nM
GI50 (MDA-MB-231 breast): 234 nM
TGI (MDA-MB-231 breast): 13500 nM
GI50 (SN12C renal): < 10 nM
TGI (SN12C renal): 39.9 nM
GI50 (NCI-H460 NSCLC): < 10 nM
TGI (NCI-H460 NSCLC): < 10 nM
GI50 (HT29 colon): < 10 nM
TGI (HT29 colon): 8700 nM
GI50 (OVCAR-5 ovarian): < 10 nM
TGI (OVCAR-5 ovarian): > 100000 nM
GI50 (IGROV1 ovarian): < 10 nM
TGI (IGROV1 ovarian): 81400 nM
GI50 (SK-MEL-28 melanoma): < 10 nM
TGI (SK-MEL-28 melanoma): 51500 nM
GI50 (NCI/ADR-RES ovarian): < 10 nM
TGI (NCI/ADR-RES ovarian): < 10 nM
GI50 (NCI-H522 lung): < 10 nM
TGI (NCI-H522 lung): 2220 nM
GI50 (UO-31 renal): < 10 nM
TGI (UO-31 renal): < 10 nM
GI50 (MOLT-4 leukemia): < 10 nM
TGI (MOLT-4 leukemia): < 10 nM
GI50 (BT-549 breast): < 10 nM
TGI (BT-549 breast): < 10 nM
GI50 (HOP-92 NSCLC): 10.5 nM
TGI (HOP-92 NSCLC): 22400 nM
GI50 (RXF 393 renal): < 10 nM
TGI (RXF 393 renal): 90.2 nM
GI50 (HCC-2998 colon): < 10 nM
TGI (HCC-2998 colon): 11.1 nM
GI50 (OVCAR-4 ovarian): 38800 nM
TGI (OVCAR-4 ovarian): > 100000 nM
GI50 (SNB-75 CNS): < 10 nM
TGI (SNB-75 CNS): 49.2 nM
GI50 (U251 glioblastoma): < 10 nM
TGI (U251 glioblastoma): < 10 nM
GI50 (HOP-62 NSCLC): < 10 nM
TGI (HOP-62 NSCLC): < 10 nM
GI50 (HL-60(TB) leukemia): < 10 nM
TGI (HL-60(TB) leukemia): < 10 nM
GI50 (HS 578T breast): < 10 nM
TGI (HS 578T breast): 16500 nM
GI50 (M14 melanoma): < 10 nM
TGI (M14 melanoma): < 10 nM
GI50 (CCRF-CEM leukemia): < 10 nM
TGI (CCRF-CEM leukemia): < 10 nM
GI50 (MDA-MB-435 melanoma): 138 nM
TGI (MDA-MB-435 melanoma): 15600 nM
GI50 (K-562 leukemia): < 10 nM
TGI (K-562 leukemia): 15000 nM
GI50 (SK-OV-3 ovarian): < 10 nM
TGI (SK-OV-3 ovarian): 2420 nM
GI50 (UACC-257 melanoma): < 10 nM
TGI (UACC-257 melanoma): 92 nM
GI50 (PC-3 prostate): 2050 nM
TGI (PC-3 prostate): 35600 nM
GI50 (HCT-15 colon): < 10 nM
TGI (HCT-15 colon): 59700 nM
GI50 (DU-145 prostate): < 10 nM
TGI (DU-145 prostate): 2390 nM
GI50 (NCI-H322M lung): 1310 nM
TGI (NCI-H322M lung): > 100000 nM
